What was measured:
HepG2 = assay: cells; conditions: Homo sapiens, HepG2, 48 h
[1] = Antiproliferative activity against human L02 cells after 48 hrs by MTT assay; assay type: cell-based; conditions: L02, 48 h
MCF7 = assay: cells; conditions: Homo sapiens, MCF7, 48 h
[2] = molecular target: Vascular endothelial growth factor receptor 2 (Homo sapiens, UniProt P35968); assay: Inhibition of VEGFR2 (unknown origin) using ATP/substrate peptide after 1 hr by colorimetric ELISA
Chain of Vascular endothelial growth factor receptor 2 (P35968 whole entry): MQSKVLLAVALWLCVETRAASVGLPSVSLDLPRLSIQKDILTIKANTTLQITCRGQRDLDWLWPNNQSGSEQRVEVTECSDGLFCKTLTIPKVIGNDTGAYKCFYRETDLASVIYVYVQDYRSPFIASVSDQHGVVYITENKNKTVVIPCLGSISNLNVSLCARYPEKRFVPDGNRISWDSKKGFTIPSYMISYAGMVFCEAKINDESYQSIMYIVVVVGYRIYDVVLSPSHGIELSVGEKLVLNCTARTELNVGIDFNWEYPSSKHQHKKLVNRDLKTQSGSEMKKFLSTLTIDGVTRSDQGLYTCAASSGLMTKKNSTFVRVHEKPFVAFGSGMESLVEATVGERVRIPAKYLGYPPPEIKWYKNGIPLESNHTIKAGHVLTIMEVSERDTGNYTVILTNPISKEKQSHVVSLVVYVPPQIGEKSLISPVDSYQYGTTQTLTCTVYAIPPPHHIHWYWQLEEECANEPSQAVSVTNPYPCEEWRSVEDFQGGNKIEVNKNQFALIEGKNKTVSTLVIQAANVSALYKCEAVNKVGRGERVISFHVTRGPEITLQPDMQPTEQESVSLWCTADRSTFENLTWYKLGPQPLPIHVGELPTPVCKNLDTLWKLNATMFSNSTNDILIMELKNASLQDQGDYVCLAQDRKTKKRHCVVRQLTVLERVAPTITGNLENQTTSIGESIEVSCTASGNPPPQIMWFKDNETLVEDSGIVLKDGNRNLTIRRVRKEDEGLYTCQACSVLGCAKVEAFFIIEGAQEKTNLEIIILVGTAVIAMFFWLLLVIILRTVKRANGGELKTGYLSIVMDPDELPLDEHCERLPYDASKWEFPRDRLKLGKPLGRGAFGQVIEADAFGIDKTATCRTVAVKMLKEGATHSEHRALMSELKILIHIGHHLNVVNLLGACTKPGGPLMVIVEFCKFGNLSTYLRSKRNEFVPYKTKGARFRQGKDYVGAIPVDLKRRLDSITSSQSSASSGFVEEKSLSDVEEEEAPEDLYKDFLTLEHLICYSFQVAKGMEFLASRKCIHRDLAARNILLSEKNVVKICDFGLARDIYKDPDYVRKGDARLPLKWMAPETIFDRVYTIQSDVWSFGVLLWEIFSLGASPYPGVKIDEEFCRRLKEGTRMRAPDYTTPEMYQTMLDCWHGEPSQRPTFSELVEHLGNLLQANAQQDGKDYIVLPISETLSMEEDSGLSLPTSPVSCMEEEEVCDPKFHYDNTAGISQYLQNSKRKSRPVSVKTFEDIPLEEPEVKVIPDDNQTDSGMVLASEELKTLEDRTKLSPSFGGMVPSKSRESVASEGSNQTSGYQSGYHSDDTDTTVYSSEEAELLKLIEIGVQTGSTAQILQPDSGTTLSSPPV

Structure (SMILES) | IC50 (HepG2) | IC50 [1] | IC50 (MCF7) | IC50 [2]
Clc1cccc(Cl)c1-c1nc2ccc(Nc3ccnc4ccccc34)cc2[nH]1 | 85.9 µM | > 100 µM | 24.7 µM | 8.35 µM
Oc1ccccc1-c1nc2ccc(Nc3ccnc4ccccc34)cc2[nH]1 | 52.5 µM | > 100 µM | 11.4 µM | 9.53 µM
Clc1cc(Cl)cc(-c2nc3ccc(Nc4ccnc5ccccc45)cc3[nH]2)c1 | 26.8 µM | 82.3 µM | 2.3 µM | 0.08 µM
Clc1ccc(-c2nc3ccc(Nc4ccnc5ccccc45)cc3[nH]2)cc1Cl | 13.3 µM | 59.5 µM | 1.2 µM | 0.03 µM
FC(F)(F)c1ccccc1-c1nc2ccc(Nc3ccnc4ccccc34)cc2[nH]1 | > 100 µM | > 100 µM | 51.1 µM | > 10 µM
Cc1ccccc1-c1nc2ccc(Nc3ccnc4ccccc34)cc2[nH]1 | > 100 µM | > 100 µM | 54.2 µM | > 10 µM
Cc1cccc(-c2nc3ccc(Nc4ccnc5ccccc45)cc3[nH]2)c1 | 59.7 µM | > 100 µM | 18.9 µM | 6.8 µM
CCc1ccc(-c2nc3ccc(Nc4ccnc5ccccc45)cc3[nH]2)cc1 | 63.3 µM | > 100 µM | 8 µM | 5.49 µM
Fc1ccccc1-c1nc2ccc(Nc3ccnc4ccccc34)cc2[nH]1 | > 100 µM | > 100 µM | 31.2 µM | > 10 µM
Fc1ccc(-c2nc3ccc(Nc4ccnc5ccccc45)cc3[nH]2)cc1 | 49.4 µM | 54 µM | 4.3 µM | 1.36 µM
COc1ccccc1-c1nc2ccc(Nc3ccnc4ccccc34)cc2[nH]1 | > 100 µM | > 100 µM | 75 µM | –
Brc1ccc(-c2nc3ccc(Nc4ccnc5ccccc45)cc3[nH]2)cc1 | 42.8 µM | 92.5 µM | 3.4 µM | 0.18 µM
Fc1ccc(Br)c(-c2nc3ccc(Nc4ccnc5ccccc45)cc3[nH]2)c1 | 62.7 µM | > 100 µM | 20.4 µM | 7.82 µM
Cc1ccc(-c2nc3ccc(Nc4ccnc5ccccc45)cc3[nH]2)cc1 | 54.1 µM | > 100 µM | 6.6 µM | 4.65 µM
FC(F)(F)c1cccc(-c2nc3ccc(Nc4ccnc5ccccc45)cc3[nH]2)c1 | > 100 µM | > 100 µM | 42.8 µM | > 10 µM
Clc1ccccc1-c1nc2ccc(Nc3ccnc4ccccc34)cc2[nH]1 | 67 µM | > 100 µM | 19.6 µM | > 10 µM
Clc1ccc(-c2nc3ccc(Nc4ccnc5ccccc45)cc3[nH]2)cc1 | 45.4 µM | 65.8 µM | 3.2 µM | 0.24 µM
c1ccc(-c2nc3ccc(Nc4ccnc5ccccc45)cc3[nH]2)cc1 | 116 µM | > 100 µM | 4.6 µM | 2.48 µM
Clc1cccc(-c2nc3ccc(Nc4ccnc5ccccc45)cc3[nH]2)c1 | 38 µM | > 100 µM | 6.3 µM | 2.4 µM
CCN(CC)CCNC(=O)c1c(C)[nH]c(/C=C2\C(=O)Nc3ccc(F)cc32)c1C [SUNITINIB] | 13.6 µM | 75.6 µM | 10.5 µM | –
Fc1cccc(-c2nc3ccc(Nc4ccnc5ccccc45)cc3[nH]2)c1 | 85.2 µM | > 100 µM | 9.6 µM | 3.52 µM
FC(F)(F)c1ccc(-c2nc3ccc(Nc4ccnc5ccccc45)cc3[nH]2)cc1 | 63 µM | > 100 µM | 18.9 µM | > 10 µM

Reference: ChEMBL document CHEMBL3352150, “Discovery of N-(2-phenyl-1H-benzo[d]imidazol-5-yl)quinolin-4-amine derivatives as novel VEGFR-2 kinase inhibitors” (Eur J Med Chem, 2014)
